Values of other authors in patent publication US8445438B2, “Compositions comprising capture peptides for A β-amyloid peptide” (Recombinant Technologies LLC, priority 2008, dated 2013).

Test system: Aβ
Conditions: peptide based on the GxFxGxF scaffold

Aβ, sequence (P05067 672-711 limits assumed): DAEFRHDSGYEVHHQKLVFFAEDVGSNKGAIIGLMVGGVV

RGTWEGKW (listed as Homo sapiens)
cellular toxicity: reduce cellular toxicity
